Data as given in the OligoGym collection.
HELM strings list units from the 5' end as sugar, base in round brackets, then linkage (d deoxyribose, r ribose, m 2'-O-methyl, p phosphodiester). Strings are as the collection lists them; they lack the last nucleoside at the 3' end of the tested compound. [moe] = 2'-O-(2-methoxyethyl) (MOE); [sp] = phosphorothioate linkage; [m5C] = 5-methylcytosine

Target: ATXN2
Test: mouse, dose not given
Conditions: ASO

Row | Substance | 3 h FOB score
1 | RNA1{[moe](T)[sp].[moe](T)p.[moe]([m5C])p.[moe](T)p.[moe](G)p.d(T)[sp].d(A)[sp].d([m5C])[sp].d(T)[sp].d(T)[sp].d(T)[sp].d(T)[sp].d([m5C])[sp].d(T)[sp].d([m5C])[sp].[moe](A)p.[moe](T)p.[moe](G)[sp].[moe](T)}$$$$ (last 3' nucleoside missing) | 4.5 score 0-7
2 | RNA1{[moe](A)[sp].[moe](G)p.[moe]([m5C])p.[moe](T)p.d(T)[sp].d(A)[sp].d(G)[sp].d(A)[sp].d(G)[sp].d(T)[sp].d(T)[sp].d(T)[sp].d(T)[sp].d(T)[sp].[moe](G)p.[moe]([m5C])p.[moe]([m5C])p.[moe](T)[sp].[moe](T)}$$$$ (last 3' nucleoside missing) | 4 score 0-7
3 | RNA1{[moe]([m5C])[sp].[moe](T)p.[moe](T)p.[moe](A)p.[moe](G)[sp].d(A)[sp].d(G)[sp].d(T)[sp].d(T)[sp].d(T)[sp].d(T)[sp].d(T)[sp].d(G)[sp].[moe]([m5C])p.[moe]([m5C])p.[moe](T)[sp].[moe](T)}$$$$ (last 3' nucleoside missing) | 6 score 0-7
4 | RNA1{[moe]([m5C])[sp].[moe](T)p.[moe](A)p.[moe](G)p.[moe](G)p.d(T)[sp].d(G)[sp].d(A)[sp].d(T)[sp].d(G)[sp].d(T)[sp].d(T)[sp].d(T)[sp].d([m5C])[sp].d(A)[sp].[moe](T)p.[moe](T)p.[moe](G)[sp].[moe](G)}$$$$ (last 3' nucleoside missing) | 7 score 0-7
5 | RNA1{[moe](T)[sp].[moe](T)p.[moe](G)p.[moe](T)p.[moe](T)p.d([m5C])[sp].d(T)[sp].d(T)[sp].d([m5C])[sp].d([m5C])[sp].d(A)[sp].d(A)[sp].d(T)[sp].d(T)[sp].d(T)[sp].[moe]([m5C])p.[moe](A)p.[moe](G)[sp].[moe](A)}$$$$ (last 3' nucleoside missing) | 0 score 0-7
6 | RNA1{[moe](A)[sp].[moe](A)p.[moe]([m5C])p.[moe](G)p.[moe](A)p.d(T)[sp].d(G)[sp].d(A)[sp].d(T)[sp].d([m5C])[sp].d(T)[sp].d(G)[sp].d(G)[sp].d(T)[sp].d(A)[sp].[moe](T)p.[moe]([m5C])p.[moe]([m5C])[sp].[moe](T)}$$$$ (last 3' nucleoside missing) | 7 score 0-7
7 | RNA1{[moe](T)[sp].[moe]([m5C])p.[moe](T)p.[moe]([m5C])p.[moe](T)[sp].d(A)[sp].d(T)[sp].d(T)[sp].d(T)[sp].d([m5C])[sp].d(T)[sp].d(T)[sp].d(T)[sp].[moe](G)p.[moe](T)p.[moe]([m5C])[sp].[moe]([m5C])}$$$$ (last 3' nucleoside missing) | 1 score 0-7
8 | RNA1{[moe](A)[sp].[moe](A)p.[moe]([m5C])p.[moe]([m5C])p.[moe](A)p.d([m5C])[sp].d(T)[sp].d(G)[sp].d(A)[sp].d(T)[sp].d(T)[sp].d(T)[sp].d(A)[sp].d(T)[sp].d(A)[sp].[moe]([m5C])p.[moe](A)p.[moe]([m5C])[sp].[moe](T)}$$$$ (last 3' nucleoside missing) | 2.5 score 0-7
9 | RNA1{[moe](A)[sp].[moe]([m5C])p.[moe](T)p.[moe](T)p.[moe]([m5C])p.d(T)[sp].d([m5C])[sp].d(T)[sp].d(A)[sp].d(T)[sp].d(T)[sp].d(T)[sp].d([m5C])[sp].d(T)[sp].d(T)[sp].[moe](T)p.[moe](G)p.[moe](T)[sp].[moe]([m5C])}$$$$ (last 3' nucleoside missing) | 3 score 0-7
10 | RNA1{[moe](G)[sp].[moe](T)p.[moe](T)p.[moe](A)p.[moe]([m5C])p.[moe](T)p.d(G)[sp].d(T)[sp].d(T)[sp].d(T)[sp].d([m5C])[sp].d(G)[sp].d(A)[sp].d([m5C])[sp].d([m5C])[sp].d(T)[sp].[moe]([m5C])p.[moe](T)[sp].[moe](G)}$$$$ (last 3' nucleoside missing) | 5 score 0-7
11 | RNA1{[moe](A)[sp].[moe](G)p.[moe](T)p.[moe]([m5C])p.[moe](A)p.d(T)[sp].d(G)[sp].d([m5C])[sp].d(T)[sp].d(T)[sp].d(A)[sp].d(T)[sp].d(A)[sp].d(A)[sp].d(A)[sp].[moe](G)p.[moe](T)p.[moe]([m5C])[sp].[moe]([m5C])}$$$$ (last 3' nucleoside missing) | 3.5 score 0-7
12 | RNA1{[moe]([m5C])[sp].[moe](T)[sp].[moe](G)[sp].[moe](G)[sp].[moe](T)[sp].d(A)[sp].d([m5C])[sp].d(A)[sp].d(G)[sp].d(T)[sp].d(T)[sp].d(G)[sp].d([m5C])[sp].d(T)[sp].d(G)[sp].[moe]([m5C])[sp].[moe](T)[sp].[moe](G)[sp].[moe]([m5C])}$$$$ (last 3' nucleoside missing) | 7 score 0-7
13 | RNA1{[moe]([m5C])[sp].[moe](A)p.[moe](G)p.[moe](T)p.[moe](G)p.d([m5C])[sp].d([m5C])[sp].d(T)[sp].d(T)[sp].d(T)[sp].d(A)[sp].d([m5C])[sp].d([m5C])[sp].d([m5C])[sp].d([m5C])[sp].[moe](T)p.[moe](T)p.[moe](G)[sp].[moe](A)}$$$$ (last 3' nucleoside missing) | 5.25 score 0-7
14 | RNA1{[moe]([m5C])[sp].[moe](T)p.[moe](T)p.[moe](A)p.[moe](G)p.[moe](A)p.d(G)[sp].d(T)[sp].d(T)[sp].d(T)[sp].d(T)[sp].d(T)[sp].d(G)[sp].d([m5C])[sp].d([m5C])[sp].d(T)[sp].[moe](T)p.[moe]([m5C])[sp].[moe]([m5C])}$$$$ (last 3' nucleoside missing) | 4.5 score 0-7
15 | RNA1{[moe](T)[sp].[moe](G)p.[moe](T)p.[moe](A)[sp].[moe]([m5C])[sp].d(T)[sp].d(T)[sp].d([m5C])[sp].d(A)[sp].d([m5C])[sp].d(A)[sp].d(T)[sp].d(T)[sp].d(T)[sp].d(G)[sp].[moe](G)p.[moe](A)p.[moe](G)[sp].[moe]([m5C])}$$$$ (last 3' nucleoside missing) | 3 score 0-7
16 | RNA1{[moe](G)[sp].[moe](T)p.[moe](T)p.[moe](T)p.[moe](T)p.d(G)[sp].d(T)[sp].d(T)[sp].d(T)[sp].d(A)[sp].d(A)[sp].d(T)[sp].d([m5C])[sp].d(A)[sp].d([m5C])[sp].[moe](A)p.[moe](G)p.[moe](T)[sp].[moe](T)}$$$$ (last 3' nucleoside missing) | 2 score 0-7
17 | RNA1{[moe]([m5C])[sp].[moe](T)p.[moe]([m5C])p.[moe]([m5C])p.[moe](T)p.d(A)[sp].d(T)[sp].d([m5C])[sp].d(A)[sp].d(T)[sp].d([m5C])[sp].d(A)[sp].d(T)[sp].d(T)[sp].d(T)[sp].[moe](T)p.[moe]([m5C])p.[moe]([m5C])[sp].[moe](A)}$$$$ (last 3' nucleoside missing) | 1 score 0-7
18 | RNA1{[moe]([m5C])[sp].[moe](T)p.[moe](T)p.[moe](A)p.[moe](G)p.d(A)[sp].d(G)[sp].d(T)[sp].d(T)[sp].d(T)[sp].d(T)[sp].d(T)[sp].d(G)[sp].d([m5C])[sp].d([m5C])[sp].[moe](T)p.[moe](T)p.[moe]([m5C])[sp].[moe]([m5C])}$$$$ (last 3' nucleoside missing) | 4 score 0-7
19 | RNA1{[moe](A)[sp].[moe](A)p.[moe](T)p.[moe](G)p.[moe]([m5C])p.d([m5C])[sp].d(G)[sp].d(T)[sp].d(T)[sp].d(T)[sp].d(T)[sp].d(T)[sp].d(A)[sp].d([m5C])[sp].d(T)[sp].[moe]([m5C])p.[moe](T)p.[moe]([m5C])[sp].[moe](A)}$$$$ (last 3' nucleoside missing) | 0 score 0-7
20 | RNA1{[moe](G)[sp].[moe]([m5C])p.[moe](T)p.[moe](T)p.[moe](A)p.[moe](G)p.d(A)[sp].d(G)[sp].d(T)[sp].d(T)[sp].d(T)[sp].d(T)[sp].d(T)[sp].d(G)[sp].d([m5C])[sp].d([m5C])[sp].[moe](T)p.[moe](T)[sp].[moe]([m5C])}$$$$ (last 3' nucleoside missing) | 5 score 0-7
21 | RNA1{[moe](A)[sp].[moe]([m5C])p.[moe](T)p.[moe](T)p.[moe]([m5C])p.[moe](T)p.d([m5C])[sp].d(T)[sp].d(A)[sp].d(T)[sp].d(T)[sp].d(T)[sp].d([m5C])[sp].d(T)[sp].d(T)[sp].d(T)[sp].[moe](G)p.[moe](T)[sp].[moe]([m5C])}$$$$ (last 3' nucleoside missing) | 1.25 score 0-7
22 | RNA1{[moe](G)[sp].[moe](T)p.[moe](T)p.[moe]([m5C])p.[moe]([m5C])p.d(T)[sp].d(T)[sp].d(A)[sp].d([m5C])[sp].d(A)[sp].d(A)[sp].d(T)[sp].d(T)[sp].d(A)[sp].d(T)[sp].[moe]([m5C])p.[moe](T)p.[moe](A)[sp].[moe](T)}$$$$ (last 3' nucleoside missing) | 3 score 0-7
23 | RNA1{[moe](T)[sp].[moe](G)p.[moe](T)p.[moe](A)p.[moe]([m5C])[sp].d(T)[sp].d(T)[sp].d([m5C])[sp].d(A)[sp].d([m5C])[sp].d(A)[sp].d(T)[sp].d(T)[sp].[moe](T)p.[moe](G)p.[moe](G)[sp].[moe](A)}$$$$ (last 3' nucleoside missing) | 3.5 score 0-7
24 | RNA1{[moe](T)[sp].[moe](A)p.[moe](A)p.[moe]([m5C])p.[moe](T)[sp].d(G)[sp].d(G)[sp].d(T)[sp].d(T)[sp].d(T)[sp].d(G)[sp].d([m5C])[sp].d([m5C])[sp].[moe]([m5C])p.[moe](T)p.[moe](T)[sp].[moe](G)}$$$$ (last 3' nucleoside missing) | 6 score 0-7
25 | RNA1{[moe](T)[sp].[moe](T)p.[moe](T)p.[moe](T)p.[moe](T)p.d(G)[sp].d([m5C])[sp].d(T)[sp].d(T)[sp].d(A)[sp].d(T)[sp].d(T)[sp].d(A)[sp].d(T)[sp].d(T)[sp].[moe]([m5C])p.[moe](T)p.[moe]([m5C])[sp].[moe](A)}$$$$ (last 3' nucleoside missing) | 0 score 0-7
26 | RNA1{[moe](T)[sp].[moe]([m5C])p.[moe]([m5C])p.[moe](A)p.[moe](A)p.d(G)[sp].d(T)[sp].d(A)[sp].d(A)[sp].d([m5C])[sp].d(A)[sp].d(G)[sp].d(T)[sp].d(G)[sp].d(T)[sp].[moe](A)p.[moe](G)p.[moe](A)[sp].[moe](A)}$$$$ (last 3' nucleoside missing) | 4 score 0-7
